Reference: PubChem BioAssay (NCI)
Where “and” joins values, the source holds several entries; their conditions need not be identical. Identical values can stand only once.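 These data come from cells grown in 96-well plates and exposed to compound for 48 hours at five concentrations. Here, GI50 denotes the concentration required for 50% inhibition of growth. TGI: concentration producing complete growth inhibition.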

Experiments:
Assay in all cases: growth of human tumour cells (NCI), 48 h
RPMI-8226 leukemia = test system: RPMI-8226 leukemia
TK-10 renal = test system: TK-10 renal
OVCAR-8 ovarian = test system: OVCAR-8 ovarian
SF-295 CNS = test system: SF-295 CNS
HOP-62 NSCLC = test system: HOP-62 NSCLC
K-562 leukemia = test system: K-562 leukemia
SK-MEL-5 melanoma = test system: SK-MEL-5 melanoma
DU-145 prostate = test system: DU-145 prostate
COLO 205 colon = test system: COLO 205 colon
PC-3 prostate = test system: PC-3 prostate
EKVX NSCLC = test system: EKVX NSCLC
OVCAR-4 ovarian = test system: OVCAR-4 ovarian
HOP-92 NSCLC = test system: HOP-92 NSCLC
HCC-2998 colon = test system: HCC-2998 colon

| SMILES | TGI (RPMI-8226 leukemia) | TGI (TK-10 renal) | TGI (OVCAR-8 ovarian) | TGI (SF-295 CNS) | TGI (HOP-62 NSCLC) | TGI (K-562 leukemia) | TGI (SK-MEL-5 melanoma) | TGI (DU-145 prostate) | TGI (COLO 205 colon) | TGI (PC-3 prostate) | TGI (EKVX NSCLC) | TGI (OVCAR-4 ovarian) | TGI (HOP-92 NSCLC) | TGI (HCC-2998 colon) | GI50 (SF-295 CNS) | GI50 (SK-MEL-5 melanoma) | GI50 (PC-3 prostate) | GI50 (TK-10 renal) | GI50 (OVCAR-8 ovarian) | GI50 (HOP-62 NSCLC) |
| --- | --- | --- | --- | --- | --- | --- | --- | --- | --- | --- | --- | --- | --- | --- | --- | --- | --- | --- | --- | --- |
| N#Cc1nc(-c2ccc(-c3nc(C#N)c(N)o3)cc2)oc1N | > 10 µM | > 10 µM | > 10 µM | > 10 µM | > 10 µM | > 10 µM | > 10 µM | > 10 µM | > 10 µM | > 10 µM | > 10 µM | > 10 µM | > 10 µM | > 10 µM | – | – | – | – | – | – |
| O=c1cc(-c2ccc3ccccc3c2)[nH]c2ncccc12 | 60.7 µM | > 100 µM | > 100 µM | > 100 µM | > 100 µM | 12 µM | 16.5 µM | > 100 µM | > 100 µM | > 100 µM | > 100 µM | > 100 µM | 75.6 µM | > 100 µM | 9.19 µM | 3.46 µM | 10.4 µM | – | – | – |
| COc1ccc2c(c1)C1c3ccccc3CCN1CCC2 (stereo unspecified) | 96.8 µM | > 100 µM | > 100 µM | 54 µM | > 100 µM | > 100 µM | > 100 µM | > 100 µM | > 100 µM | > 100 µM | > 100 µM | > 100 µM | > 100 µM | 63.5 µM | – | – | – | – | – | – |
| C=CCN1C(=O)/C(=C/c2ccc(OC)cc2)N=C1SC1OC(COC(C)=O)C(OC(C)=O)C(OC(C)=O)C1OC(C)=O (stereo unspecified) | > 100 µM | 39.6 µM and > 100 µM | > 100 µM | 48.8 µM and > 100 µM | 40 µM and > 100 µM | > 100 µM | 45.2 µM and > 100 µM | 39.2 µM and > 100 µM | > 100 µM | 37.1 µM and > 100 µM | 46 µM and > 100 µM | 15 µM and > 100 µM | 46.4 µM and 59.4 µM | > 100 µM | 21 µM and 70.3 µM | – | 16.9 µM and 52.6 µM | 20.2 µM and > 100 µM | 13.1 µM and 54.1 µM | 17.5 µM and 90 µM |
| COc1cc(/C=C2\C(=O)N(c3ccc(NC(C)=O)cc3)C(c3ccccc3)S2(=O)=O)cc(OC)c1OC (stereo unspecified) | > 100 µM | > 100 µM | > 100 µM | > 100 µM | > 100 µM | > 100 µM | > 100 µM | > 100 µM | > 100 µM | > 100 µM | > 100 µM | > 100 µM | > 100 µM | > 100 µM | – | – | – | – | – | – |
| CC1=NN(C(=O)CC(=O)Nc2ccc(Cl)cc2)C(=O)C1N=Nc1ccc(S(=O)(=O)c2ccc(N=NC3C(=O)N(C(=O)CC(=O)Nc4ccc(Cl)cc4)N=C3C)cc2)cc1 (stereo unspecified) | > 100 µM | 79.1 µM | > 100 µM | > 100 µM | > 100 µM | > 100 µM | > 100 µM | > 100 µM | > 100 µM | > 100 µM | > 100 µM | > 100 µM | > 100 µM | > 100 µM | – | – | – | – | – | – |
| O=C1O/C(=C(/Cl)c2c3ccccc3cc3ccccc23)c2ccccc21 | 66.4 µM | > 100 µM | 69.9 µM | > 100 µM | 57.8 µM | > 100 µM | 30.7 µM | > 100 µM | 49.2 µM | > 100 µM | > 100 µM | 90.3 µM | 50.3 µM | > 100 µM | – | – | – | – | – | – |
| COc1cc(OC)c2nc(C)c3c(c2c1)OCC3 | > 100 µM | > 100 µM | > 100 µM | > 100 µM | > 100 µM | > 100 µM | > 100 µM | > 100 µM | > 100 µM | > 100 µM | > 100 µM | > 100 µM | > 100 µM | > 100 µM | – | – | – | – | – | – |
| O=C1CC2(CCNCC2)C(=O)N1N1CCCCC1 | > 100 µM | > 100 µM | > 100 µM | > 100 µM | > 100 µM | > 100 µM | > 100 µM | > 100 µM | > 100 µM | > 100 µM | > 100 µM | > 100 µM | > 100 µM | > 100 µM | – | – | – | – | – | – |
| CCOC(=O)C(C)c1nc2cc(C(F)(F)F)ccc2[nH]c1=O (stereo unspecified) | > 100 µM | > 100 µM | > 100 µM | > 100 µM | > 100 µM | > 100 µM | > 100 µM | > 100 µM | > 100 µM | > 100 µM | > 100 µM | > 100 µM | > 100 µM | > 100 µM | – | – | – | – | – | – |
| CCNC1=C(NC(=O)c2ccc(OC)cc2)C(=O)c2ccccc2C1=O | > 100 µM | > 100 µM | > 100 µM | > 100 µM | > 100 µM | > 100 µM | > 100 µM | > 100 µM | > 100 µM | > 100 µM | > 100 µM | > 100 µM | > 100 µM | > 100 µM | – | – | – | – | – | – |
| [O-]/[N+](=N/c1ncc(-c2ccccc2)cn1)c1ncc(-c2ccccc2)cn1 | > 100 µM | > 100 µM | > 100 µM | > 100 µM | > 100 µM | > 100 µM | > 100 µM | > 100 µM | > 100 µM | > 100 µM | > 100 µM | > 100 µM | > 100 µM | > 100 µM | – | – | – | – | – | – |
